# Reference: PMC4303146, “Investigation of cyanine dyes for in vivo optical imaging of altered mitochondrial membrane potential in tumors” (Cancer Medicine, 2014)
# What was measured:
# HeLa cells [1] = assay: Cellular localization study (fluorescence microscopy with NAO mitochondria marker); format: cell-based, human; settings: 1 μmol/L, 60 min, NAO 100 nmol/L
# Method: HeLa cells (3 × 10^5 cells) were cultured in a poly-L-lysine coated glass bottom dish for 24 h at 37°C before use. Cells were washed twice with phosphate-buffered saline (PBS) and then incubated with the IC7-1 derivative dissolved in dimethyl sulfoxide (DMSO) (1 μmol/L final concentration) in DMEM supplemented with 5% FBS and 1% penicillin and streptomycin for 60 min. To determine the dye localization, mitochondria were labeled with NAO (100 nmol/L final concentration) for 20 min before completion of the incubation with IC7-1 derivative. Next, the cells were washed twice each with DMEM and PBS. Cells were viewed with a fluorescence microscope under a 100× oil-immersion objective lens. MetaMorph® software (Molecular Devices, LLC, Sunnyvale, CA) was used for imaging analysis.
# HeLa cell xenograft = assay: In vivo imaging study in HeLa cell xenograft mice; settings: for Tumor fluorescence intensity group from ROI analysis / Liver accumulation and excretion: 10 nmol i.v.; for Liver accumulation and excretion: ventral imaging 3-72 h
# Method: Animal experiments were conducted in accordance with institutional guidelines and were approved by the Kyoto University Animal Care Committee. […] HeLa cells (2 × 10^6 cells in 100 μL of PBS) were subcutaneously inoculated into the right hind legs of mice. Fourteen days after implantation, mice were used for the imaging study.
# Clairvivo® OPT measurement and display software ver. 2.6.0.0. (SHIMADZU Co.) was used for imaging analysis.
# Exposure time was 5s for the scan at 3 h, and 3s for the other scans. Clairvivo® OPT measurement and display software ver. 2.6.0.0. (SHIMADZU Co., Kyoto, Japan) was used for imaging analysis.
# [2] = Photophysical properties (fluorescence spectroscopy, quantum yield); format: physicochemical
# Method: IC7-1 derivatives were dissolved in chloroform or 5% FBS to give a concentration of 1 μmol/L for fluorescence spectroscopy analysis. Excitation spectra were measured following the emission at 850 nm, and emission spectra were measured following excitation at 823 nm. Quantum yields were determined using a Fluorolog-3 spectrofluorometer equipped with an integrating sphere.
# BSA = BSA (Bos taurus, UniProt P02769); assay: Association constants of IC7-1 derivatives to albumin (fluorimetric titration); format: binding, bovine; settings: dye 1 µM, BSA 0-1.0 µM, 30 min; read-out: Ka, association constant of dye-albumin complex (converted)
# BSA, sequence (P02769 25-607): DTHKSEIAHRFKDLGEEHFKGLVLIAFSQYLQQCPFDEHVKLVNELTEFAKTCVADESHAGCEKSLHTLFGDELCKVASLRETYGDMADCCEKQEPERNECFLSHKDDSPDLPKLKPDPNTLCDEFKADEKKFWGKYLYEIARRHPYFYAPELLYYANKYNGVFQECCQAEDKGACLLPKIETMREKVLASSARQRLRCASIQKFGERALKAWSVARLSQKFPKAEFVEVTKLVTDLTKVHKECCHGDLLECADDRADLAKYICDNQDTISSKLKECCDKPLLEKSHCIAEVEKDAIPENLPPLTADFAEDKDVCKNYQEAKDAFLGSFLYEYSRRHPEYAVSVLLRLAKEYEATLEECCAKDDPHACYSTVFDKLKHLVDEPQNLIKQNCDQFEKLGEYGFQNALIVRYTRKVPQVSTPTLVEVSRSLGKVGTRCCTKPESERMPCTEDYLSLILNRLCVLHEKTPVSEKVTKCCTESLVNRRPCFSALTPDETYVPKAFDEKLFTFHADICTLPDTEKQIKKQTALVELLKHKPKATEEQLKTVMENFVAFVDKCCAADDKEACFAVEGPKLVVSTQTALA
# Method: Binding studies of IC7-1 derivatives to albumin were conducted as reported previously (Beckford G et al. The solvatochromic effects of side chain substitution on the binding interaction of novel tricarbocyanine dyes with human serum albumin. Talanta 2012;92: 45-52). Briefly, IC7-1 derivatives (1 µM final concentration) were incubated with BSA (0, 0.4, 0.6, 0.8, and 1.0 µM) for 30 min to equilibrate. The fluorescence intensity was measured following the excitation at 823 nm and the emission from 840 to 900 nm. The interaction between dye D and albumin A can be expressed by Eq. 1:
# The association constant for the dye-albumin complex formation can be expressed by Eq. 2:
# Then, the association constant Ka of the dye-albumin complex was calculated from the data for the fluorimetric titration of the dye with albumin using Eq. 3:
# 1/ΔF = 1/k[D] + (1/(k[D]Ka))·(1/[A]) (3)
# where k is a constant depending on the instrumentation and quantum efficiency of the process.
# Therefore, a plot of the reciprocal of ΔF versus the reciprocal of albumin concentration gives a straight line. The association constant was calculated by dividing the intercept by the slope of the line.
# HeLa cells [3] = assay: Cellular uptake study with uncoupler CCCP; format: cell-based, human; settings: dye 1 μmol/L, 60 min, CCCP 0-25 μmol/L
# Method: A cellular uptake study was conducted as reported previously. Briefly, the buffer solution (pH 7.4) for the cellular uptake study was composed of NaCl ([…]), KCl (5.4 mmol/L), CaCl2 (1.2 mmol/L), MgSO4 (0.8 mmol/L), NaH2PO4 (0.8 mmol/L), dextrose (5.6 mmol/L), and 4-(2-hydroxyethyl)-1-piperazineethanesulfonic acid) (5 mmol/L). HeLa cells (1 × 10^6 cells/mL buffer solution) were incubated with carbonyl […] m-chlorophenylhydrazone (CCCP; 0, 0.1, 0.25, 0.5, 0.75, 1, 2.5, 5, 10, and 25 μmol/L) for 5 min at 37°C in 1.5 mL microtubes, followed by the addition of the IC7-1 derivative (1 μmol/L final concentration). After a 60-min incubation with the IC7-1 derivative, the cells were washed twice and resuspended with buffer solution. The fluorescence intensity was measured following the excitation at 823 nm and the emission from 840 to 900 nm, and the normalized intensity (%) was calculated as a percentage of fluorescence intensity obtained with CCCP untreated (0 μmol/L) cells.
# The buffer solution (pH 7.4) for the cellular uptake study was composed of NaCl (145 mM), KCl (5.4 mM), CaCl2 (1.2 mM), MgSO4 (0.8 mM), NaH2PO4 (0.8 mM), dextrose (5.6 mM), and HEPES (5 mM). The HeLa cells (1 x 10^6 cells / ml buffer solution) were incubated with an uncoupler (CCCP; 0, 0.1, 0.25, 0.5, 0.75, 1, 2.5, 5, 10, and 25 µM) for 5 min at 37 °C in 1.5 mL microtubes, followed by the addition of IR-780 or IC7-1-Bu (1 µM final concentration) After a 60 min incubation with the dyes, the cells were washed twice and resuspended with buffer solution. Fluorescence intensity was measured following the excitation at 763 nm and the emission from 780 to 880 nm for IR-780, and the excitation at 823 nm and the emission from 840 to 900 nm for IC7-1-Bu. The normalized intensity (%) was calculated as a percentage of fluorescence intensity obtained with CCCP untreated (0 µM) cells.
# [4] = biological target: T1, albumin-binding site I (warfarin-binding site) (Bos taurus, UniProt P02769); assay: Protein-binding assay with competitive inhibitors in 5% FBS; format: in vitro ADME, bovine; settings: 5% FBS, inhibitor 189 μmol/L, dye 1 μmol/L
# T1 construct: incubated for 30 min in PBS (pH 7.4) containing 5% DMSO and 5% FBS; from tissue; host or cells: fetal bovine serum (5% in PBS)
# T1 sequence (P02769 25-607): as above
# Method: A protein-binding assay was conducted as reported previously. Briefly, warfarin, ibuprofen, digoxin, and quinidine were used as competitive inhibitors of albumin-binding sites I, II, III, and […], respectively. The inhibitors (0 and 189 μmol/L) were incubated for 30 min in PBS (pH 7.4) containing 5% DMSO and 5% FBS at room temperature. Immediately after the addition of the IC7-1 derivative (1 μmol/L final concentration), the fluorescence intensity was measured following the excitation at 823 nm and the emission from 840 to 900 nm. The normalized intensity (%) was calculated as a percentage of fluorescence intensity obtained from an inhibitor untreated sample.
Compound,Subcellular localization of NIR fluorescence (HeLa cells [1]),Tumor fluorescence intensity group from ROI analysis (HeLa cell xenograft),"Tumor depiction in fluorescence images (HeLa cell xenograft; 10 nmol i.v., 24, 48 and 72 h)",Liver accumulation and excretion (HeLa cell xenograft),"Φ, quantum yield ([2]; 5% FBS)","ε, extinction coefficient ([2]; 5% FBS)","emmax, maximum emission wavelength ([2]; 5% FBS, 1 μmol/L)","exmax, maximum excitation wavelength ([2]; 5% FBS, 1 μmol/L)","Φ, quantum yield ([2]; CHCl3)","ε, extinction coefficient ([2]; CHCl3)","emmax, maximum emission wavelength ([2]; CHCl3, 1 μmol/L)","exmax, maximum excitation wavelength ([2]; CHCl3, 1 μmol/L)",Kd (BSA),"Fluorescence intensity at the tumor region (HeLa cell xenograft; 10 nmol i.v., 24, 48 and 72 h)",Normalized cellular fluorescence intensity under CCCP treatment (HeLa cells [3]),Normalized fluorescence intensity with warfarin (albumin site I inhibitor) [4]
"CCN1/C(=C/C=C2\CCCC(/C=C/C3=[N+](CC)c4ccc5ccccc5c4C3(C)C)=C2Cl)C(C)(C)c2c1ccc1ccccc21 [IC7-1-Et, 3-Ethyl-2-(2-{3-[2-(3-ethyl-1,1-dimethyl-1,3-dihydro-benz[e]indol-2-ylidene)-ethylidene]-2-chloro-cyclohex-1-enyl}-vinyl)-1,1-dimethyl-1H-benz[e]indolium]",colocalized fluorescence with NAO,negligible intensity group,negligible signals from the whole body,"accumulated in the liver, and were quickly excreted",0.04,130000 mol/L/cm,847 nm,823 nm,0.06,330000 mol/L/cm,842 nm,823 nm,556 nM,–,–,–
"CN1/C(=C/C=C2\CCCC(/C=C/C3=[N+](C)c4ccc5ccccc5c4C3(C)C)=C2Cl)C(C)(C)c2c1ccc1ccccc21 [IC7-1-Me, 3-Methyl-2-(2-{3-[2-(3-methyl-1,1-dimethyl-1,3-dihydro-benz[e]indol-2-ylidene)-ethylidene]-2-chloro-cyclohex-1-enyl}-vinyl)-1,1-dimethyl-1H-benz[e]indolium]",colocalized fluorescence with NAO,negligible intensity group,negligible signals from the whole body,"accumulated in the liver, and were quickly excreted",0.04,120000 mol/L/cm,846 nm,823 nm,0.07,330000 mol/L/cm,841 nm,823 nm,769 nM,–,–,–
"CCCCCCN1/C(=C/C=C2\CCCC(/C=C/C3=[N+](CCCCCC)c4ccc5ccccc5c4C3(C)C)=C2Cl)C(C)(C)c2c1ccc1ccccc21 [IC7-1-He, 3-Hexyl-2-(2-{3-[2-(3-hexyl-1,1-dimethyl-1,3-dihydro-benz[e]indol-2-ylidene)-ethylidene]-2-chloro-cyclohex-1-enyl}-vinyl)-1,1-dimethyl-1H-benz[e]indolium]",weak or negligible fluorescence in the NIR region,negligible intensity group,negligible signals from the whole body,–,0.03,60000 mol/L/cm,841 nm,823 nm,0.06,330000 mol/L/cm,845 nm,823 nm,833 nM,weak at all time points,reduced cellular fluorescence from treatment with a low CCCP concentration,–
"CCCN1/C(=C/C=C2\CCCC(/C=C/C3=[N+](CCC)c4ccccc4C3(C)C)=C2Cl)C(C)(C)c2ccccc21.[I-] [IR-780, reference compound]",–,–,–,–,–,–,–,–,–,–,–,–,–,–,almost negligible effect of CCCP,–
"CCCN1/C(=C/C=C2\CCCC(/C=C/C3=[N+](CCC)c4ccc5ccccc5c4C3(C)C)=C2Cl)C(C)(C)c2c1ccc1ccccc21 [IC7-1-Pr, 3-Propyl-2-(2-{3-[2-(3-propyl-1,1-dimethyl-1,3-dihydro-benz[e]indol-2-ylidene)-ethylidene]-2-chloro-cyclohex-1-enyl}-vinyl)-1,1-dimethyl-1H-benz[e]indolium]",colocalized fluorescence with NAO,mild intensity group,Tumors were clearly depicted,–,0.05,130000 mol/L/cm,843 nm,823 nm,0.07,330000 mol/L/cm,845 nm,823 nm,417 nM,–,reduced cellular fluorescence from treatment with a low CCCP concentration,specifically bound to albumin
"CCCCCN1/C(=C/C=C2\CCCC(/C=C/C3=[N+](CCCCC)c4ccc5ccccc5c4C3(C)C)=C2Cl)C(C)(C)c2c1ccc1ccccc21 [IC7-1-Pe, 3-Pentyl-2-(2-{3-[2-(3-pentyl-1,1-dimethyl-1,3-dihydro-benz[e]indol-2-ylidene)-ethylidene]-2-chloro-cyclohex-1-enyl}-vinyl)-1,1-dimethyl-1H-benz[e]indolium]",weak or negligible fluorescence in the NIR region,mild intensity group,Tumors were clearly depicted,–,0.03,90000 mol/L/cm,847 nm,823 nm,0.06,330000 mol/L/cm,845 nm,823 nm,625 nM,–,reduced cellular fluorescence from treatment with a low CCCP concentration,specifically bound to albumin
